# Key:
# Format in all cases: cell-based, mouse
# [1] = system: β-galactosidase in CMV-LacZ C2C12 myoblasts; test: CMV-LacZ secondary screen in C2C12 myoblasts (β-Gal stabilizing assay); conditions: for CMV-LACZ in Myoblasts (β-galactosidase activity relative to DMSO): CMV-LacZ C2C12 myoblasts; for CMV-LACZ in Myoblasts, value relative to DMSO: SU9516 analogs, C2C12 CMV-LacZ, N=2
# Outline: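 β-Gal level was the read-out, measured in a clonal C2C12 line expressing LacZ from a CMV promoter. Dose-response curves used six concentrations, 0.5 μM up to 40 μM, with duplicate points.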
# [2] = system: β-galactosidase in CMV-LacZ C2C12 myotubes; test: CMV-LacZ secondary screen in C2C12 myotubes (β-Gal stabilizing assay); conditions: for CMV-LACZ in Myotubes, signal relative to DMSO: C2C12 CMV-LacZ myotubes, fold relative to DMSO; for CMV-LACZ in Myotubes, value relative to DMSO: SU9516 analogs, C2C12 CMV-LacZ, N=2
# Outline: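 β-gal stabilization was measured in C2C12 myoblasts or myotubes stably transfected with a CMV-driven LacZ construct, using the FDG β-gal assay. Compounds were tested in dose-response at 0.5, 1, 5, 10, 20 and 40 μM, with two replicates per point.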
# [3] = system: α7 integrin (LacZ reporter in α7+/LacZ myotubes); test: Myotube α7 integrin FDG assay (Burkin assay in myotubes, 96-well); conditions: for Burkin Assay in Myotubes, value relative to DMSO: SU9516 analogs, 96-well, N=3-6
# [4] = system: α7 integrin (LacZ reporter in α7βgal+/− myoblasts); test: Myoblast α7+/LacZ integrin FDG assay (Burkin assay in myoblasts, 96-well); conditions: 96-well; for Burkin Assay in Myoblasts, signal relative to DMSO: α7+/LacZ myoblasts; for Burkin Assay in Myoblasts, value relative to DMSO: SU9516 analogs, N=3-6
compound,measurement,setting,value
NC(=O)c1sc2nc3c(cc2c1N)CCC3 [MLS000707378-01],CMV-LACZ in Myoblasts (β-galactosidase activity relative to DMSO),[1]; 0.5 uM,1.0175
same,CMV-LACZ in Myoblasts (β-galactosidase activity relative to DMSO),[1]; 1 uM,1.0883
same,CMV-LACZ in Myoblasts (β-galactosidase activity relative to DMSO),[1]; 5 uM,0.8309
same,CMV-LACZ in Myoblasts (β-galactosidase activity relative to DMSO),[1]; 10 uM,0.8072
same,CMV-LACZ in Myoblasts (β-galactosidase activity relative to DMSO),[1]; 20 uM,0.8667
same,CMV-LACZ in Myoblasts (β-galactosidase activity relative to DMSO),[1]; 40 uM,0.6548
same,"CMV-LACZ in Myotubes, signal relative to DMSO",[2]; 0.5 uM,1.0537
same,"CMV-LACZ in Myotubes, signal relative to DMSO",[2]; 1 uM,1.3937
same,"CMV-LACZ in Myotubes, signal relative to DMSO",[2]; 5 uM,0.9294
same,"CMV-LACZ in Myotubes, signal relative to DMSO",[2]; 10 uM,1.0300
same,"CMV-LACZ in Myotubes, signal relative to DMSO",[2]; 20 uM,0.9689
same,"CMV-LACZ in Myotubes, signal relative to DMSO",[2]; 40 uM,0.9167
same,"Burkin Assay in Myotubes, α7 integrin LacZ reporter signal relative to DMSO",[3]; 0.5 uM,0.8716
same,"Burkin Assay in Myotubes, α7 integrin LacZ reporter signal relative to DMSO",[3]; 1 uM,0.8512
same,"Burkin Assay in Myotubes, α7 integrin LacZ reporter signal relative to DMSO",[3]; 5 uM,0.8899
same,"Burkin Assay in Myotubes, α7 integrin LacZ reporter signal relative to DMSO",[3]; 10 uM,1.241
same,"Burkin Assay in Myotubes, α7 integrin LacZ reporter signal relative to DMSO",[3]; 20 uM,1.046
same,"Burkin Assay in Myotubes, α7 integrin LacZ reporter signal relative to DMSO",[3]; 40 uM,1.051
same,"Burkin Assay in Myoblasts, signal relative to DMSO",[4]; 0.5 uM,1.003
same,"Burkin Assay in Myoblasts, signal relative to DMSO",[4]; 1 uM,1.046
same,"Burkin Assay in Myoblasts, signal relative to DMSO",[4]; 5 uM,1.024
same,"Burkin Assay in Myoblasts, signal relative to DMSO",[4]; 10 uM,1.076
same,"Burkin Assay in Myoblasts, signal relative to DMSO",[4]; 20 uM,1.317
same,"Burkin Assay in Myoblasts, signal relative to DMSO",[4]; 40 uM,1.493
CCOc1cc2c3c(c1)C(C)=CC(C)(C)N3C(=O)C2=O [MLS000710233-01],"CMV-LACZ in Myoblasts, value relative to DMSO",[1]; 0.5 uM,1.0173
same,"CMV-LACZ in Myoblasts, value relative to DMSO",[1]; 1 uM,0.8263
same,"CMV-LACZ in Myoblasts, value relative to DMSO",[1]; 5 uM,0.8263
same,"CMV-LACZ in Myoblasts, value relative to DMSO",[1]; 10 uM,0.8509
same,"CMV-LACZ in Myoblasts, value relative to DMSO",[1]; 20 uM,0.8530
same,"CMV-LACZ in Myoblasts, value relative to DMSO",[1]; 40 uM,0.8779
same,"CMV-LACZ in Myotubes, value relative to DMSO",[2]; 0.5 uM,0.8781
same,"CMV-LACZ in Myotubes, value relative to DMSO",[2]; 1 uM,0.9410
same,"CMV-LACZ in Myotubes, value relative to DMSO",[2]; 5 uM,0.9060
same,"CMV-LACZ in Myotubes, value relative to DMSO",[2]; 10 uM,1.0698
same,"CMV-LACZ in Myotubes, value relative to DMSO",[2]; 20 uM,1.1130
same,"CMV-LACZ in Myotubes, value relative to DMSO",[2]; 40 uM,1.1380
same,"Burkin Assay in Myotubes, value relative to DMSO",[3]; 0.5 uM,1.11
same,"Burkin Assay in Myotubes, value relative to DMSO",[3]; 1 uM,1.033
same,"Burkin Assay in Myotubes, value relative to DMSO",[3]; 5 uM,0.9331
same,"Burkin Assay in Myotubes, value relative to DMSO",[3]; 10 uM,0.8688
same,"Burkin Assay in Myotubes, value relative to DMSO",[3]; 20 uM,0.6933
same,"Burkin Assay in Myotubes, value relative to DMSO",[3]; 40 uM,0.6295
same,"Burkin Assay in Myoblasts, value relative to DMSO",[4]; 0.5 uM,1.17
same,"Burkin Assay in Myoblasts, value relative to DMSO",[4]; 1 uM,1.159
same,"Burkin Assay in Myoblasts, value relative to DMSO",[4]; 5 uM,0.8066
same,"Burkin Assay in Myoblasts, value relative to DMSO",[4]; 10 uM,0.5637
same,"Burkin Assay in Myoblasts, value relative to DMSO",[4]; 20 uM,0.1723
same,"Burkin Assay in Myoblasts, value relative to DMSO",[4]; 40 uM,0.1743
Cc1cccc(NCC(=O)N/N=C\c2ccccn2)c1 [MLS000710288-01],CMV-LACZ in Myoblasts (β-galactosidase activity relative to DMSO),[1]; 0.5 uM,1.0338
same,CMV-LACZ in Myoblasts (β-galactosidase activity relative to DMSO),[1]; 1 uM,0.9325
same,CMV-LACZ in Myoblasts (β-galactosidase activity relative to DMSO),[1]; 5 uM,1.0737
same,CMV-LACZ in Myoblasts (β-galactosidase activity relative to DMSO),[1]; 10 uM,1.2515
same,CMV-LACZ in Myoblasts (β-galactosidase activity relative to DMSO),[1]; 20 uM,1.1193
same,CMV-LACZ in Myoblasts (β-galactosidase activity relative to DMSO),[1]; 40 uM,0.9063
same,"CMV-LACZ in Myotubes, signal relative to DMSO",[2]; 0.5 uM,1.0371
same,"CMV-LACZ in Myotubes, signal relative to DMSO",[2]; 1 uM,1.1133
same,"CMV-LACZ in Myotubes, signal relative to DMSO",[2]; 5 uM,1.0717
same,"CMV-LACZ in Myotubes, signal relative to DMSO",[2]; 10 uM,1.1225
same,"CMV-LACZ in Myotubes, signal relative to DMSO",[2]; 20 uM,0.9400
same,"CMV-LACZ in Myotubes, signal relative to DMSO",[2]; 40 uM,0.8905
same,"Burkin Assay in Myotubes, α7 integrin LacZ reporter signal relative to DMSO",[3]; 0.5 uM,1.076
same,"Burkin Assay in Myotubes, α7 integrin LacZ reporter signal relative to DMSO",[3]; 1 uM,0.9575
same,"Burkin Assay in Myotubes, α7 integrin LacZ reporter signal relative to DMSO",[3]; 5 uM,1.084
same,"Burkin Assay in Myotubes, α7 integrin LacZ reporter signal relative to DMSO",[3]; 10 uM,0.9598
same,"Burkin Assay in Myotubes, α7 integrin LacZ reporter signal relative to DMSO",[3]; 20 uM,1.024
same,"Burkin Assay in Myotubes, α7 integrin LacZ reporter signal relative to DMSO",[3]; 40 uM,0.8202
same,"Burkin Assay in Myoblasts, signal relative to DMSO",[4]; 0.5 uM,1.168
same,"Burkin Assay in Myoblasts, signal relative to DMSO",[4]; 1 uM,1.305
same,"Burkin Assay in Myoblasts, signal relative to DMSO",[4]; 5 uM,1.3928
same,"Burkin Assay in Myoblasts, signal relative to DMSO",[4]; 10 uM,1.1778
same,"Burkin Assay in Myoblasts, signal relative to DMSO",[4]; 20 uM,0.8681
same,"Burkin Assay in Myoblasts, signal relative to DMSO",[4]; 40 uM,0.5963
Cc1cc(C)cc(OCC(=O)N/N=C/c2ccccn2)c1 [MLS000710669-01],CMV-LACZ in Myoblasts (β-galactosidase activity relative to DMSO),[1]; 0.5 uM,1.0969
same,CMV-LACZ in Myoblasts (β-galactosidase activity relative to DMSO),[1]; 1 uM,0.9975
same,CMV-LACZ in Myoblasts (β-galactosidase activity relative to DMSO),[1]; 5 uM,1.0325
same,CMV-LACZ in Myoblasts (β-galactosidase activity relative to DMSO),[1]; 10 uM,1.0823
same,CMV-LACZ in Myoblasts (β-galactosidase activity relative to DMSO),[1]; 20 uM,1.1319
same,CMV-LACZ in Myoblasts (β-galactosidase activity relative to DMSO),[1]; 40 uM,0.8778
same,"CMV-LACZ in Myotubes, signal relative to DMSO",[2]; 0.5 uM,0.9341
same,"CMV-LACZ in Myotubes, signal relative to DMSO",[2]; 1 uM,0.8881
same,"CMV-LACZ in Myotubes, signal relative to DMSO",[2]; 5 uM,0.9690
same,"CMV-LACZ in Myotubes, signal relative to DMSO",[2]; 10 uM,1.2372
same,"CMV-LACZ in Myotubes, signal relative to DMSO",[2]; 20 uM,0.8682
same,"CMV-LACZ in Myotubes, signal relative to DMSO",[2]; 40 uM,1.1824
same,"Burkin Assay in Myotubes, α7 integrin LacZ reporter signal relative to DMSO",[3]; 0.5 uM,1.045
same,"Burkin Assay in Myotubes, α7 integrin LacZ reporter signal relative to DMSO",[3]; 1 uM,1.163
same,"Burkin Assay in Myotubes, α7 integrin LacZ reporter signal relative to DMSO",[3]; 5 uM,1.054
same,"Burkin Assay in Myotubes, α7 integrin LacZ reporter signal relative to DMSO",[3]; 10 uM,0.9
same,"Burkin Assay in Myotubes, α7 integrin LacZ reporter signal relative to DMSO",[3]; 20 uM,0.9967
same,"Burkin Assay in Myotubes, α7 integrin LacZ reporter signal relative to DMSO",[3]; 40 uM,1.0073
same,"Burkin Assay in Myoblasts, signal relative to DMSO",[4]; 0.5 uM,1.025
same,"Burkin Assay in Myoblasts, signal relative to DMSO",[4]; 1 uM,1.05
same,"Burkin Assay in Myoblasts, signal relative to DMSO",[4]; 5 uM,1.0722
same,"Burkin Assay in Myoblasts, signal relative to DMSO",[4]; 10 uM,0.9941
same,"Burkin Assay in Myoblasts, signal relative to DMSO",[4]; 20 uM,1.848
same,"Burkin Assay in Myoblasts, signal relative to DMSO",[4]; 40 uM,0.8243
CC1(C)Cc2ccccc2-c2nc3n(c(=O)c21)CCS3 [MLS000711491-01],CMV-LACZ in Myoblasts (β-galactosidase activity relative to DMSO),[1]; 0.5 uM,1.0889
same,CMV-LACZ in Myoblasts (β-galactosidase activity relative to DMSO),[1]; 1 uM,1.1060
same,CMV-LACZ in Myoblasts (β-galactosidase activity relative to DMSO),[1]; 5 uM,0.9088
same,CMV-LACZ in Myoblasts (β-galactosidase activity relative to DMSO),[1]; 10 uM,1.0199
same,CMV-LACZ in Myoblasts (β-galactosidase activity relative to DMSO),[1]; 20 uM,1.5063
same,CMV-LACZ in Myoblasts (β-galactosidase activity relative to DMSO),[1]; 40 uM,0.7800
same,"CMV-LACZ in Myotubes, signal relative to DMSO",[2]; 0.5 uM,0.9495
same,"CMV-LACZ in Myotubes, signal relative to DMSO",[2]; 1 uM,0.9095
same,"CMV-LACZ in Myotubes, signal relative to DMSO",[2]; 5 uM,0.9993
same,"CMV-LACZ in Myotubes, signal relative to DMSO",[2]; 10 uM,0.8645
same,"CMV-LACZ in Myotubes, signal relative to DMSO",[2]; 20 uM,1.1318
same,"CMV-LACZ in Myotubes, signal relative to DMSO",[2]; 40 uM,0.9929
same,"Burkin Assay in Myotubes, α7 integrin LacZ reporter signal relative to DMSO",[3]; 0.5 uM,1.07
same,"Burkin Assay in Myotubes, α7 integrin LacZ reporter signal relative to DMSO",[3]; 1 uM,1.062
same,"Burkin Assay in Myotubes, α7 integrin LacZ reporter signal relative to DMSO",[3]; 5 uM,0.9629
same,"Burkin Assay in Myotubes, α7 integrin LacZ reporter signal relative to DMSO",[3]; 10 uM,0.9462
same,"Burkin Assay in Myotubes, α7 integrin LacZ reporter signal relative to DMSO",[3]; 20 uM,0.671
same,"Burkin Assay in Myotubes, α7 integrin LacZ reporter signal relative to DMSO",[3]; 40 uM,0.579
same,"Burkin Assay in Myoblasts, signal relative to DMSO",[4]; 0.5 uM,1.214
same,"Burkin Assay in Myoblasts, signal relative to DMSO",[4]; 1 uM,1.0159
same,"Burkin Assay in Myoblasts, signal relative to DMSO",[4]; 5 uM,1.02
same,"Burkin Assay in Myoblasts, signal relative to DMSO",[4]; 10 uM,1.024
same,"Burkin Assay in Myoblasts, signal relative to DMSO",[4]; 20 uM,0.7949
same,"Burkin Assay in Myoblasts, signal relative to DMSO",[4]; 40 uM,0.5793
